We go through 15 compounds from ChEMBL document CHEMBL1133839, “A new class of antiarrhythmic-defibrillatory agents” (2001).

What all share (format): functional
Experiment [1] has as its system Felis catus. In words: Evaluated for its relative defibrillating activity in male cats 10 min after injection at concentration 1 mg/Kg.
Experiment [2] has as its system Felis catus. In words: Evaluated for its relative defibrillating activity in male cats 10 min after injection at concentration 2 mg/Kg.
In experiment [3] the test system is Felis catus. Nature of the experiment: Evaluated for its relative defibrillating activity in male cats 10 min after injection at concentration 3 mg/Kg.
For experiment [4], the system named is Felis catus. Nature of the experiment: Evaluated for its relative defibrillating activity in male cats 10 min after injection at concentration 0.5 mg/Kg.
For experiment [5], the system named is Felis catus. Nature of the experiment: Evaluated for its relative defibrillating activity in male cats 10 min after injection at 0.5 mg/Kg.
For experiment [6], the system named is Felis catus. In words: Evaluated for its relative defibrillating activity in male cats 10 min after injection at 1 mg/Kg.
For experiment [7], the system named is Felis catus. Nature of the experiment: Evaluated for its relative defibrillating activity in male cats 10 min after injection at 2 mg/Kg.
Experiment [8] has as its system Felis catus. In words: Evaluated for its relative defibrillating activity in male cats 10 min after injection at 3 mg/Kg.

As for `CC(C)(C)NCCC(=O)N1c2ccccc2CCc2ccccc21.Cl`, the Relative activity in experiment [1] was determined as 50%; in experiment [2] it was 100%; in experiment [3], 100%.

For `CC(C)NC[C@H](O)CN1c2ccccc2CCc2ccccc21.Cl`, the Relative activity in experiment [4] is on record as 75%; in experiment [1], 100%; in experiment [2], 100%.

`CC(C)CNCCC(=O)N1c2ccccc2CCc2ccccc21.Cl`: the Relative activity in experiment [1], in experiment [2] and in experiment [3] was 0% in each case.

For the compound `CNCCC(=O)N1c2ccccc2NC(=O)c2ccccc21.Cl`, the Relative activity in experiment [1], in experiment [2] and in experiment [3] was 0% throughout.

Take `CC(C)NCC(O)CN1c2ccccc2CCc2ccccc21.Cl` (configuration not stated): the Relative activity in experiment [4] was found to be 50%; in experiment [1], 50%; in experiment [2], 100%; in experiment [3] it was 100%.

Regarding `CCNCCC(=O)N1c2ccccc2NC(=O)c2ccccc21.Cl`, the Relative activity in experiment [2] and in experiment [3] was 0% in each case.

As for `CC(C)NCCC(=O)N1c2ccccc2NC(=O)c2ccccc21.Cl`, the Relative activity in experiment [2] and in experiment [3] was 0% each time.

Regarding `CNCCC(=O)N1c2ccccc2CCc2ccccc21.Cl`, the Relative activity in experiment [5] was 0%; in experiment [6] it was 25%; in experiment [7], 100%; in experiment [8], 100%.

On to `CC(C)NCCC(=O)N1c2ccccc2CCc2ccccc21.Cl`, for which the Relative activity in experiment [8] was determined as 100%; in experiment [4], 25%; in experiment [1], 75%; in experiment [2], 100%.

Turning to `CC(C)NC[C@@H](O)CN1c2ccccc2CCc2ccccc21.Cl`, the results for the Relative activity in experiment [4], in experiment [1] and in experiment [2] were 50%, 50% and 100%, respectively.

Consider `Cl.O=C(CCNCc1ccccc1)N1c2ccccc2CCc2ccccc21`, for which the Relative activity in experiment [1], in experiment [2] and in experiment [3] was 0% in each case.

Turning to `CCC(C)NCCC(=O)N1c2ccccc2CCc2ccccc21.Cl` (configuration not stated), the Relative activity in experiment [1], in experiment [2] and in experiment [3] was 0% throughout.

As to `CCNCCC(=O)N1c2ccccc2CCc2ccccc21.Cl`, the Relative activity stood at 0% in experiment [5], 50% in experiment [6], 75% in experiment [7] and 100% in experiment [8].

As to `CNCCCN1c2ccccc2CCc2ccccc21` [DESIPRAMINE], the values for the Relative activity in experiment [1], in experiment [2] and in experiment [3] were 25%, 75% and 100%, respectively.

Take `CN(C)CCCN1c2ccccc2CCc2ccccc21` [IMIPRAMINE]: the Relative activity in experiment [1] came out at 0%; in experiment [2] it was 50%; in experiment [3], 75%.
